Non-standard residues stand in square brackets, D forms with d. Residues, ends and D or L forms follow the SMILES beside them.

The target in one data set is T1, human GIPR (Homo sapiens, UniProt P48546).
T1 construct: host or cells: CHO-K1
T1 sequence (P48546 22-466): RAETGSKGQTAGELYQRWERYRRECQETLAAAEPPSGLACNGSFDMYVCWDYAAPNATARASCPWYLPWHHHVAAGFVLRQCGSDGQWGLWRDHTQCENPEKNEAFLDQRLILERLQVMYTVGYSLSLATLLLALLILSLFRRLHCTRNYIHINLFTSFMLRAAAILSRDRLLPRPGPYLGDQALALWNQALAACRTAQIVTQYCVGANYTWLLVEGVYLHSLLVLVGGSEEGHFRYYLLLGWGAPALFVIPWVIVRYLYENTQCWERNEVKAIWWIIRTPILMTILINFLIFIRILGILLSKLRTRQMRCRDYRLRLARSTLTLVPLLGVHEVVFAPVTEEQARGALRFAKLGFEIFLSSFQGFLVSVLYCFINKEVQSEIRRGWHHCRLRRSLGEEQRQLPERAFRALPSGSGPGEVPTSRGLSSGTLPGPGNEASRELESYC
Description: cAMP production in CHO-K1 cells expressing human GIPR (LANCE cAMP assay). The format is cell-based. Particulars: for Emax: CHO-K1, read-out: % activation of cAMP (maximal stimulation). On the procedure:
CHO—K1 cells expressing human GIPR were obtained from DiscoverX Corporation (Fremont, Calif.). The cells were cultured in Ham's F-12 nutrient media supplemented with 10% foetal bovine serum, 800 μg/ml geneticin, 300 μg/ml hydromycin, 2 mM L-glutamine, and Penicillin-streptomycin (100 units, 100 μg) at 37° C. in a 5% CO2 incubator. The cells were harvested at 90% confluence.
The cells were suspended in Ham's F-12 nutrient media to a concentration of 200,000 cells/ml. The cells were then plated in a 384 well plate at with […] of the suspension added per well. The cells were incubated overnight at 37° C. in a 5% CO2 incubator.
The activity of the compounds was determined by stimulating the CHO—K1 cells with the test compound, and measuring the levels of cAMP produced. The activity of the compounds was compared to the activity of native GIP, as GIP stimulates cAMP production. 6 μl of the test compound in stimulation buffer (990 ml Hank's Balanced Salt solution (HBSS) (1×) (Invitrogen Corp #14025-092), 10 ml Hepes buffer solution (1 mol·L) (Invitrogen Corp 15630-080), 1 g BSA (final 0.1%), and 1 ml IBMX 250 mM stock prepared fresh in DMSO (Sigma-Aldrich 15879)) were added to cells, followed by 6 μl of Alexa Fluor® 647-anti cAMP antibody (Perkin Elmer) in stimulation buffer. […] The well plate was centrifuged for 3 min at 300 rpm, and incubated at room temperature for 45 minutes. 12 μl of detection mixture (biotin cAMP and EUW8044 labeled streptavidin (Eu-SA) in cAMP Detection Buffer (Perkin Elmer)) was added and incubated for 60 min at room temperature.
The levels of cAMP produced were measured according to the detailed protocol outlined in the Perkin Elmer LANCE cAMP Assay Perkin Elmer Lance cAMP Kit manual. The activity of the compounds was compared to the activity of native GIP.
The plates are read on a TRF detection instrument, EnVision® (Perkin Elmer) (excitation at 340 nm and emission at 665 nm). The values of the cAMP signal are obtained from the standard cAMP curve and used to determine the amount of maximal stimulation, and EC50 for stimulating the cAMP signal.

The nature of data set [1]: stability in Hannover Wistar rat plasma. The class given is in vitro ADME. Particulars: for stability in rat plasma (in words): acceptance range 75-125%. The method, then: (§1) The following study was conducted to assess the stability of the compound of Example 19 in Hannover Wistar rat and human plasma after 4 and 24 hours.
(§2) 2.08 mg of the compound of Example 19 was weighed out and placed in a 4 mL amber vial. To this was added 1.0 mL DMSO. The vial was carefully vortexed to produce a 573 μM stock solution of the compound.
(§3) Hannover Wistar rat plasma and human plasma (anti-coagulant sodium EDTA) were pre-warmed to 37° C. for 30 minutes in a water bath. Rat plasma pH was 7.45 and human plasma pH was 7.47. 1.5 mL microcentrifuge vials were used.
(§4) 8.70 μL of 573 μM stock solution of the compound of Example 19 was added to 491.34 μL of the rat plasma and placed into one vial. 8.74 μL of 573 μM stock solution of the compound of Example 19 was added to 491.34 μL of the human plasma and placed into another vial. The two vials were gently vortexed ensuring proper mixing.
(§5) Six new vials were labeled as follows: rat T0, rat T4, rat T24, human T0, human T4, human T24. To each of these vials, […] of treated plasma was added. The T4 and T24 vials were capped and placed in a 37° C. incubator for 4 and 24 hours, respectively.
(§6) To each of the two T0 vials, 50 µL of Sorensen buffer and 200 μL 1.0% acetic acid in acetonitrile were added. The T0 vials were then capped, vortexed and centrifuged at 10000×g for 10 minutes. Upon completion of centrifugation, 100 μL of the supernatant of each vial was added to a separate well in a 96-well injection block. 200 μL of 0.1% acetic acid in Milli-Q® water (Millipore) was then added to each well.
(§7) The above procedure as written with respect to the T0 vials was repeated for the two T4 vials at the 4 hour timepoint and the T24 vials at the 24 hour timepoint. With each timepoint a fresh T0 sample was prepared, as described above, to ensure there was no sample degradation.
(§8) All samples were analyzed by LC/MS/MS. The resulting chromatographs were processed to obtain peaks areas for each sample. The percent of compound remaining at each timepoint as compared with the amount present in the comparison T0 sample was calculated.

Data set [2] is described as follows: stability in human plasma. The format is in vitro ADME. The method, then: as §1, §2, §3, §4, §5, §6, §7, §8

As to `CC[C@H](C)[C@H](NC(=O)[C@H](CO)NC(=O)[C@H](Cc1ccc(O)cc1)NC(=O)[C@H](CC(=O)O)NC(=O)[C@H](CO)NC(=O)[C@@H](NC(=O)[C@H](Cc1ccccc1)NC(=O)[C@@H](NC(=O)CNC(=O)[C@H](CCC(=O)O)NC(=O)[C@H](C)NC(=O)[C@@H](Cc1ccccc1F)NC(C)=O)[C@@H](C)O)[C@@H](C)CC)C(=O)N[C@@H](C)C(=O)N[C@@H](CCSC)C(=O)N[C@@H](CC(=O)O)C(=O)N[C@@H](CCCCN)C(=O)N[C@H](C(=O)N[C@@H](Cc1c[nH]cn1)C(=O)N[C@@H](CCC(N)=O)C(=O)N[C@@H](CCC(N)=O)C(=O)N[C@@H](CC(=O)O)C(=O)N[C@@H](Cc1ccccc1)C(=O)N[C@H](C(=O)N[C@@H](CC(N)=O)C(=O)N[C@@H](Cc1c[nH]c2ccccc12)C(=O)N[C@@H](CC(C)C)C(=O)N[C@@H](CC(C)C)C(=O)N[C@@H](C)C(=O)N[C@@H](CCC(N)=O)C(=O)N[C@@H](CCCCN)C(N)=O)C(C)C)[C@@H](C)CC` [Example 15], on human GIPR, the midpoint of the response, the EC50, lay at 0.0075 nM and the Emax turned out to be 99.8%.
The matching figures for `CC[C@H](C)[C@H](NC(=O)[C@H](CO)NC(=O)[C@H](Cc1ccc(O)cc1)NC(=O)[C@H](CC(=O)O)NC(=O)[C@H](CO)NC(=O)[C@@H](NC(=O)[C@H](Cc1ccccc1)NC(=O)[C@@H](NC(=O)CNC(=O)[C@H](CCC(=O)O)NC(=O)[C@H](C)NC(=O)[C@@H](Cc1cc(F)c(F)c(F)c1)NC(C)=O)[C@@H](C)O)[C@@H](C)CC)C(=O)N[C@@H](C)C(=O)N[C@@H](CCSC)C(=O)N[C@@H](CC(=O)O)C(=O)N[C@@H](CCCCN)C(=O)N[C@H](C(=O)N[C@@H](Cc1c[nH]cn1)C(=O)N[C@@H](CCC(N)=O)C(=O)N[C@@H](CCC(N)=O)C(=O)N[C@@H](CC(=O)O)C(=O)N[C@@H](Cc1ccccc1)C(=O)N[C@H](C(=O)N[C@@H](CC(N)=O)C(=O)N[C@@H](Cc1c[nH]c2ccccc12)C(=O)N[C@@H](CC(C)C)C(=O)N[C@@H](CC(C)C)C(=O)N[C@@H](C)C(=O)N[C@@H](CCC(N)=O)C(=O)N[C@@H](CCCCN)C(N)=O)C(C)C)[C@@H](C)CC` [Example 18]: 0.104 nM and 100%.
For `CC[C@H](C)[C@H](NC(=O)[C@H](C)NC(=O)[C@H](CC(=O)O)NC(=O)[C@H](CCSC)NC(=O)[C@H](C)NC(=O)[C@@H](NC(=O)[C@H](CO)NC(=O)[C@H](Cc1ccc(O)cc1)NC(=O)[C@H](CC(=O)O)NC(=O)[C@H](CO)NC(=O)[C@@H](NC(=O)[C@H](Cc1ccccc1)NC(=O)[C@@H](NC(=O)CNC(=O)[C@H](CCC(=O)O)NC(=O)[C@H](C)NC(=O)[C@@H](Cc1ccc(O)cc1)NC(C)=O)[C@@H](C)O)[C@@H](C)CC)[C@@H](C)CC)C(=O)N[C@@H](Cc1c[nH]cn1)C(=O)N[C@@H](CCC(N)=O)C(=O)N[C@@H](CCC(N)=O)C(=O)N[C@@H](CC(=O)O)C(=O)N[C@@H](Cc1ccccc1)C(=O)N[C@H](C(=O)N[C@@H](CC(N)=O)C(=O)N[C@@H](Cc1c[nH]c2ccccc12)C(=O)N[C@@H](CC(C)C)C(=O)N[C@@H](CC(C)C)C(=O)N[C@@H](C)C(=O)N[C@@H](CCC(N)=O)C(=O)N[C@@H](CCCCN)C(N)=O)C(C)C` [Example 19] (Ac-[dY]AEGTFISDYSIAMDAIHQQDFVNWLLAQK-NH2), the Emax at human GIPR was found to be 100%. The “% Remaining 4 hr, Rat” value in data set [1] (10 uM, 37° C., 4 hr, vs T0 sample, LC/MS/MS) was found to be 124.7%. Also, the “stability in rat plasma (in words)” value is recorded as “stable” in data set [1] (4 hours) and “slightly below the acceptance range” in data set [1] (24 hour timepoint). Moreover, the fraction remaining at 24 h, 10 µM in data set [1] (Hannover Wistar, pH 7.45, 10 uM, 37° C., 24 hr, vs T0 sample, LC/MS/MS) amounted to 72.7%; in data set [2] (pH 7.47, 10 uM, 37° C., 24 hr, vs T0 sample, LC/MS/MS), 75.9%. The “stability in human plasma (in words)” value in data set [2] (both the 4 hour and the 24 hour timepoints) is reported as “stable”. The same compound came in with a fraction remaining at 4 h, 10 µM in data set [2] (pH 7.47, 10 uM, 37° C., 4 hr, vs T0 sample, LC/MS/MS) of 93.6%.

These data come from patent publication US9023986B2, “Glucose-dependent insulinotropic peptide analogs” (Hoffmann-La Roche Inc., priority 2010, dated 2015).
